Measurements: PubChem BioAssay AID328 (DTP/NCI, 2004)
Where “and” joins values, the source holds several entries; their conditions need not be identical. Equal entries are not always repeated. Toxic doses and inconclusive results are not listed.

System: BDF1 mice, P388 leukemia ip, median survival T/C
Test: NCI In Vivo Anticancer Drug Screen. Data for tumor model P388 Leukemia (intraperitoneal) in B6D2F1 (BDF1) mice
Details: endpoint: median survival time, higher = longer survival
Summary of the method: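 Mice carrying the transplantable tumour receive compound or vehicle. Survival is followed in each arm, and the treated measure is divided by the vehicle measure.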

[1] = dose: 12.5 mg/kg/injection, schedule: Q01DX009 (ip), vehicle: saline with Tween-80
[2] = dose: 25.0 mg/kg/injection, schedule: Q01DX009 (ip), vehicle: saline with Tween-80
[3] = dose: 50.0 mg/kg/injection, schedule: Q01DX009 (ip), vehicle: saline with Tween-80
[4] = dose: 100.0 mg/kg/injection, schedule: Q01DX009 (ip), vehicle: saline with Tween-80
[5] = dose: 200.0 mg/kg/injection, schedule: Q01DX009 (ip), vehicle: saline with Tween-80
[6] = dose: 50.0 mg/kg/injection, schedule: Q01DX009 (ip), vehicle: saline
[7] = dose: 100.0 mg/kg/injection, schedule: Q01DX009 (ip), vehicle: saline
[8] = dose: 12.5 mg/kg/injection, schedule: Q01DX009 (ip), vehicle: saline
[9] = dose: 25.0 mg/kg/injection, schedule: Q01DX009 (ip), vehicle: saline
[10] = dose: 100.0 mg/kg/injection, schedule: Q04DX003 (ip), vehicle: saline

With `Nc1ccc(CCc2ccccc2)cc1` the T/C [1] was 122 % of control, the T/C [2] was 100 % of control and the T/C [3] was 109 % of control. The T/C (dose: 56.25 mg/kg/injection, schedule: Q04DX003 (ip), vehicle: saline with Tween-80) was 108 % of control, the T/C (dose: 75.0 mg/kg/injection, schedule: Q01DX009 (ip), vehicle: saline with Tween-80) was 118 % of control and the T/C (dose: 112.5 mg/kg/injection, schedule: Q04DX003 (ip), vehicle: saline with Tween-80) was 112 % of control.

In the case of `O=C1C(=O)c2ccccc2-c2ccccc21`, the T/C (dose: 0.75 mg/kg/injection, schedule: Q01DX009 (ip), vehicle: carboxymethylcellulose (CMC)) is reported as 100 % of control, the T/C (dose: 1.5 mg/kg/injection, schedule: Q01DX009 (ip), vehicle: carboxymethylcellulose (CMC)) is reported as 109 % of control and the T/C (dose: 3.0 mg/kg/injection, schedule: Q01DX009 (ip), vehicle: carboxymethylcellulose (CMC)) is reported as 95 % of control. For the same compound, the T/C (dose: 6.0 mg/kg/injection, schedule: Q01DX009 (ip), vehicle: carboxymethylcellulose (CMC)) was 114 % of control.

In the case of `CC(=O)OC1CC2(O)C(CCC3(C)C(c4ccc(=O)oc4)CCC32O)C2(C)CCC(OC3OC(CO)C(O)C(O)C3O)C=C12` (stereo not drawn), the T/C (dose: 125.0 micrograms/kg/injection, schedule: Q01DX010 (ip), vehicle: saline) is reported as 90 % of control.

`COC(=O)c1ccc(OCCOc2ccc(C(C)(C)CC(C)(C)C)cc2)c(N)c1` was tested, and the T/C (dose: 100.0 mg/kg/injection, schedule: Q01DX001 (ip), vehicle: Klucel (hydroxypropylcellulose) (HPC)) was 95 % of control, the T/C (dose: 200.0 mg/kg/injection, schedule: Q01DX001 (ip), vehicle: Klucel (hydroxypropylcellulose) (HPC)) was 104 % of control and the T/C (dose: 400.0 mg/kg/injection, schedule: Q01DX001 (ip), vehicle: Klucel (hydroxypropylcellulose) (HPC)) was 100 % of control.

In the case of `NNc1cnc2ccccc2n1`, the T/C (dose: 37.5 mg/kg/injection, schedule: Q04DX003 (ip), vehicle: saline with Tween-80) is reported as 100 % of control, the T/C (dose: 75.0 mg/kg/injection, schedule: Q04DX003 (ip), vehicle: saline with Tween-80) is reported as 191 % of control and the T/C (dose: 150.0 mg/kg/injection, schedule: Q04DX003 (ip), vehicle: saline with Tween-80) is reported as 100 % of control.

`C[C@@H]1C[C@H]2C(=CC1=O)CC[C@@H]1[C@@H]2CC[C@]2(C)[C@@H](O)CC[C@@H]12` was tested, and the T/C [4] was 100 % of control, the T/C [5] was 109 % of control and the T/C (dose: 400.0 mg/kg/injection, schedule: Q01DX009 (ip), vehicle: saline with Tween-80) was 109 % of control.

`CC(O)(c1ccc(Cl)cc1)C(c1ccccc1)c1ccccn1` (stereo not drawn) was tested, and the T/C (dose: 25.0 mg/kg/injection, schedule: Q01DX009 (ip), vehicle: water) was 101 % of control, the T/C (dose: 50.0 mg/kg/injection, schedule: Q01DX009 (ip), vehicle: water) was 109 % of control and the T/C (dose: 100.0 mg/kg/injection, schedule: Q01DX009 (ip), vehicle: water) was 86 % of control. The T/C (dose: 200.0 mg/kg/injection, schedule: Q01DX009 (ip), vehicle: water) was 109 % of control and the T/C (dose: 400.0 mg/kg/injection, schedule: Q01DX009 (ip), vehicle: water) was 99 % of control.

For `CC(C)CCC[C@@H](C)[C@H]1CC[C@H]2[C@@H]3CC[C@H]4C[C@H]5N[C@H]5C[C@]4(C)[C@H]3CC[C@]12C`, the T/C (dose: 50.0 mg/kg/injection, schedule: Q01DX001 (ip), vehicle: saline sonified) was 100 % of control and the T/C (dose: 100.0 mg/kg/injection, schedule: Q01DX001 (ip), vehicle: saline sonified) was 95 % of control.

In the case of `[N-]=[N+]=C1C=C(c2ccccc2)N=C1c1ccccc1`, the T/C [6] is reported as 109 % of control and the T/C [7] is reported as 88 % of control.

For `Cc1ccc(S(=O)(=O)OCCOC(=O)OCCOS(=O)(=O)c2ccc(C)cc2)cc1`, the T/C [3] was 99 % of control, the T/C [4] was 100 % of control and the T/C [5] was 99 % of control.

For `O=C(CNC(=O)Nc1n[nH]c(=S)s1)N/N=C/c1ccccc1O`, the T/C [3] was 100 % of control, the T/C [4] was 91 % of control and the T/C [5] was 98 % of control.

`COc1cc2cc(Oc3ccc4ccc(=O)oc4c3)c(=O)oc2cc1O` was tested, and the T/C (dose: 3.12 mg/kg/injection, schedule: Q01DX009 (ip), vehicle: carboxymethylcellulose (CMC)) was 95 % of control, the T/C (dose: 6.25 mg/kg/injection, schedule: Q01DX009 (ip), vehicle: carboxymethylcellulose (CMC)) was 116 % of control and the T/C (dose: 6.25 mg/kg/injection, schedule: Q01DX009 (ip), vehicle: saline + alcohol) was 90 % of control. The T/C (dose: 12.5 mg/kg/injection, schedule: Q01DX009 (ip), vehicle: carboxymethylcellulose (CMC)) was 104 % of control, the T/C (dose: 12.5 mg/kg/injection, schedule: Q01DX009 (ip), vehicle: saline + alcohol) was 95 % of control and the T/C (dose: 25.0 mg/kg/injection, schedule: Q01DX009 (ip), vehicle: carboxymethylcellulose (CMC)) was 108 % of control. The T/C (dose: 25.0 mg/kg/injection, schedule: Q01DX009 (ip), vehicle: saline + alcohol) was 113 % of control.

`O=C(Nc1ccc(C2=NCCCN2)cc1)Nc1cccc(C(=O)Nc2ccc(C3=NCCCN3)cc2)c1` was tested, and the T/C (dose: 16.5 mg/kg/injection, schedule: Q01DX009 (ip), vehicle: saline with Tween-80) was 200 % of control and the T/C [2] was 272 % of control.

`CC(=O)CC(C)=O.CC(=O)CC(C)=O.O.O.[Ni]` was tested, and the T/C (dose: 6.25 mg/kg/injection, schedule: Q04DX003 (ip), vehicle: saline) was 108 % of control, the T/C (dose: 12.5 mg/kg/injection, schedule: Q04DX003 (ip), vehicle: saline) was 104 % of control and the T/C (dose: 25.0 mg/kg/injection, schedule: Q04DX003 (ip), vehicle: saline) was 114 % of control.

`Cc1cc(-c2ccccc2)nnc1NCCN1CCOCC1` was tested, and the T/C (dose: 6.25 mg/kg/injection, schedule: Q01DX009 (ip), vehicle: saline) was 106 % of control, the T/C [8] was 90 % of control and the T/C [9] was 88 % of control.

`NC1(CO)COC(c2ccccc2)OC1` (stereo not drawn) was tested, and the T/C [9] was 100 % of control and 105 % of control, the T/C [6] was 105 % of control and 118 % of control and the T/C (dose: 50.0 mg/kg/injection, schedule: Q04DX003 (ip), vehicle: saline) was 97 % of control and 98 % of control and 109 % of control. The T/C [7] was 100 % of control and 107 % of control and the T/C [10] was 100 % of control and 102 % of control.

`ClCC1CNC(c2ccccc2)O1` (stereo not drawn) was tested, and the T/C (dose: 12.5 mg/kg/injection, schedule: Q04DX003 (ip), vehicle: saline with Tween-80) was 101 % of control and the T/C (dose: 25.0 mg/kg/injection, schedule: Q04DX003 (ip), vehicle: saline with Tween-80) was 104 % of control.

With `O=c1[nH]cc[nH]1` the T/C [7] was 95 % of control, the T/C [10] was 100 % of control and the T/C (dose: 200.0 mg/kg/injection, schedule: Q01DX009 (ip), vehicle: saline) was 114 % of control. The T/C (dose: 200.0 mg/kg/injection, schedule: Q04DX003 (ip), vehicle: saline) was 108 % of control, the T/C (dose: 264.0 mg/kg/injection, schedule: Q01DX009 (ip), vehicle: saline) was 122 % of control and the T/C (dose: 400.0 mg/kg/injection, schedule: Q01DX009 (ip), vehicle: saline) was 122 % of control. The T/C (dose: 400.0 mg/kg/injection, schedule: Q04DX003 (ip), vehicle: saline) was 104 % of control.

With `c1ccc2cc(-c3cc4ccccc4s3)ccc2c1` the T/C (dose: 50.0 mg/kg/injection, schedule: Q01DX010 (ip), vehicle: saline) was 95 % of control, the T/C (dose: 100.0 mg/kg/injection, schedule: Q01DX009 (ip), vehicle: Klucel (hydroxypropylcellulose) (HPC)) was 120 % of control and the T/C (dose: 100.0 mg/kg/injection, schedule: Q01DX010 (ip), vehicle: saline) was 100 % of control. For the same compound, the T/C (dose: 200.0 mg/kg/injection, schedule: Q01DX009 (ip), vehicle: Klucel (hydroxypropylcellulose) (HPC)) was 120 % of control, the T/C (dose: 200.0 mg/kg/injection, schedule: Q01DX010 (ip), vehicle: saline) was 100 % of control and the T/C (dose: 400.0 mg/kg/injection, schedule: Q01DX009 (ip), vehicle: Klucel (hydroxypropylcellulose) (HPC)) was 115 % of control. For the same compound, the T/C (dose: 400.0 mg/kg/injection, schedule: Q01DX010 (ip), vehicle: saline) was 100 % of control.

`O=[N+]([O-])c1ccc(N/N=C(\c2ccccc2)c2ccsc2)c([N+](=O)[O-])c1` was tested, and the T/C (dose: 6.25 mg/kg/injection, schedule: Q01DX009 (ip), vehicle: saline with Tween-80) was 103 % of control, the T/C [1] was 100 % of control and the T/C [2] was 96 % of control. The T/C [3] was 92 % of control.

`COc1cccc2c1C(=O)c1c(O)c3c(c(O)c1C2=O)C[C@@](O)(/C(C)=N/NC(=O)c1ccccc1)C[C@@H]3OC1CC(N(C)C)C(O)C(C)O1` (stereo partly drawn) was tested, and the T/C (dose: 0.78 mg/kg/injection, schedule: Q01DX009 (ip), vehicle: water) was 161 % of control, the T/C (dose: 1.56 mg/kg/injection, schedule: Q01DX009 (ip), vehicle: water) was 186 % of control and the T/C (dose: 3.13 mg/kg/injection, schedule: Q01DX009 (ip), vehicle: water) was 236 % of control. The T/C (dose: 6.25 mg/kg/injection, schedule: Q01DX009 (ip), vehicle: water) was 96 % of control.

In the case of `O=C(/C=C/c1ccncc1)c1cccc2ccccc12`, the T/C [8] is reported as 102 % of control, the T/C [9] is reported as 108 % of control and the T/C [6] is reported as 100 % of control. For the same compound, the T/C [7] was 116 % of control.
